Values of other authors, collected in PubChem BioAssay AID1259409 (Chemical Carcinogenesis Research Information System (CCRIS), 2018).
Several values for one entry are separate records, joined by “and”; a condition that tells them apart may be missing. Identical values can stand only once.

Tested on: rodent chemically induced tumor inhibition, incidence and multiplicity
Assay: CCRIS tumor inhibitor studies
Details: Promoter: NONE USED

CCOc1ccc2c(c1)C(C)=CC(C)(C)N2
tumour outcome (control, treated, inhibition, significance) (Carcinogen: 1,2-DIMETHYLHYDRAZINE, 540-73-8, Dose [Inhibitor]: 0, 0.8% IN DIET BEGINNING 1 WK POST LAST CARCINOGEN DOSE AND CONTINUING FOR 36 WK (STUDY DURATION: 40 WK), Route [Inhibitor]: ORAL, Species: RAT, Strain/Sex: F344/MALE, Target Tissue: Type of Lesion: COLON: ADENOMA, Dose [Carcinogen]: 20 MG/KG 1/WK FOR 4 WK): 1/20 (5%), 4/18 (22%), -340%, not calculated | tumour outcome (control, treated, inhibition, significance) (Carcinogen: 1,2-DIMETHYLHYDRAZINE, 540-73-8, Dose [Inhibitor]: 0, 0.8% IN DIET BEGINNING 1 WK POST LAST CARCINOGEN DOSE AND CONTINUING FOR 36 WK (STUDY DURATION: 40 WK), Route [Inhibitor]: ORAL, Species: RAT, Strain/Sex: F344/MALE, Target Tissue: Type of Lesion: COLON: CARCINOMA, Dose [Carcinogen]: 20 MG/KG 1/WK FOR 4 WK): 6/20 (30%), 7/18 (39%), -30%, not calculated | tumour outcome (control, treated, inhibition, significance) (Carcinogen: 7,12-DIMETHYLBENZ[A]ANTHRACENE, 57-97-6, Dose [Inhibitor]: 200 MG IN 1 ML OLIVE OIL ONCE (STUDY DURATION: 18 WK), Route [Inhibitor]: GAVAGE, Species: RAT, Strain/Sex: SPRAGUE-DAWLEY/FEMALE, Target Tissue: Type of Lesion: MAMMARY GLAND: TUMOR, Dose [Carcinogen]: 12 MG IN 1 ML OLIVE OIL ADMINISTERED 1 HR AFTER INHIBITOR): 27/34 (79%), 2/17 (12%), 85%, p<0.01 | tumour outcome (control, treated, inhibition, significance) (Carcinogen: CIPROFIBRATE, 52214-84-3, Dose [Inhibitor]: 0.5% IN DIET FOR 60 WK (STUDY DURATION: 60 WK), Route [Inhibitor]: ORAL, Species: RAT, Strain/Sex: F344/MALE, Target Tissue: Type of Lesion: LIVER: TUMOR, Dose [Carcinogen]: 10 MG/KG BODY WEIGHT IN DIET SIMULTANEOUSLY WITH INHIBITOR FOR 60 WK): 21/25 (84%), 7/24 (29%), 65%, p<0.005 and 22/25 (88%), 4/24 (17%), 81%, p<0.005 | tumour outcome (control, treated, inhibition, significance) (Carcinogen: N-BIS(2-HYDROXYPROPYL)NITROSAMINE, 53609-64-6, Dose [Inhibitor]: 0, 0.8% IN DIET FOR 30 WK BEGINNING POST CARCINOGEN TREATMENT (STUDY DURATION: 32 WK0, Route [Inhibitor]: ORAL, Species: RAT, Strain/Sex: F344/MALE, Target Tissue: Type of Lesion: THYROID: ADENOMA, Dose [Carcinogen]: 0.1% IN DRINKING WATER FOR 2 WK): 1/20 (5%), 19/20 (95%), -1800%, p<0.001 | tumour outcome (control, treated, inhibition, significance) (Carcinogen: N-BIS(2-HYDROXYPROPYL)NITROSAMINE, 53609-64-6, Dose [Inhibitor]: 0, 0.8% IN DIET FOR 30 WK BEGINNING POST CARCINOGEN TREATMENT (STUDY DURATION: 32 WK), Route [Inhibitor]: ORAL, Species: RAT, Strain/Sex: F344/MALE, Target Tissue: Type of Lesion: BLADDER: ADENOMA, Dose [Carcinogen]: 0.1% IN DRINKING WATER FOR 2 WK): 5%, 5%, 0%, not significant | tumour outcome (control, treated, inhibition, significance) (Carcinogen: N-BIS(2-HYDROXYPROPYL)NITROSAMINE, 53609-64-6, Dose [Inhibitor]: 0, 0.8% IN DIET FOR 30 WK BEGINNING POST CARCINOGEN TREATMENT (STUDY DURATION: 32 WK), Route [Inhibitor]: ORAL, Species: RAT, Strain/Sex: F344/MALE, Target Tissue: Type of Lesion: KIDNEY: TUMOR, Dose [Carcinogen]: 0.1% IN DRINKING WATER FOR 2 WK): 10%, 30%, -200%, not calculated | tumour outcome (control, treated, inhibition, significance) (Carcinogen: N-BIS(2-HYDROXYPROPYL)NITROSAMINE, 53609-64-6, Dose [Inhibitor]: 0, 0.8% IN DIET FOR 30 WK BEGINNING POST CARCINOGEN TREATMENT (STUDY DURATION: 32 WK), Route [Inhibitor]: ORAL, Species: RAT, Strain/Sex: F344/MALE, Target Tissue: Type of Lesion: LUNG: ADENOMA, Dose [Carcinogen]: 0.1% IN DRINKING WATER FOR 2 WK): 100%, 95%, 5%, not calculated | tumour outcome (control, treated, inhibition, significance) (Carcinogen: N-BIS(2-HYDROXYPROPYL)NITROSAMINE, 53609-64-6, Dose [Inhibitor]: 0, 0.8% IN DIET FOR 30 WK BEGINNING POST CARCINOGEN TREATMENT (STUDY DURATION: 32 WK), Route [Inhibitor]: ORAL, Species: RAT, Strain/Sex: F344/MALE, Target Tissue: Type of Lesion: LUNG: CARCINOMA, Dose [Carcinogen]: 0.1% IN DRINKING WATER FOR 2 WK): 45%, 15%, 67%, p<0.05 | tumour outcome (control, treated, inhibition, significance) (Carcinogen: N-BIS(2-HYDROXYPROPYL)NITROSAMINE, 53609-64-6, Dose [Inhibitor]: 0, 0.8% IN DIET FOR 30 WK BEGINNING POST CARCINOGEN TREATMENT (STUDY DURATION: 32 WK), Route [Inhibitor]: ORAL, Species: RAT, Strain/Sex: F344/MALE, Target Tissue: Type of Lesion: THYROID: ADENOMA, Dose [Carcinogen]: 0.1% IN DRINKING WATER FOR 2 WK): 5%, 95%, -1800%, p<0.001 | tumour outcome (control, treated, inhibition, significance) (Carcinogen: N-BIS(2-HYDROXYPROPYL)NITROSAMINE, 53609-64-6, Dose [Inhibitor]: 0, 0.8% IN DIET FOR 30 WK BEGINNING POST CARCINOGEN TREATMENT (STUDY DURATION: 32 WK), Route [Inhibitor]: ORAL, Species: RAT, Strain/Sex: F344/MALE, Target Tissue: Type of Lesion: THYROID: CARCINOMA, Dose [Carcinogen]: 0.1% IN DRINKING WATER FOR 2 WK): 20%, 50%, -150%, not calculated | outcome (Carcinogen: N-ETHYL-N-HYDROXYETHYLNITROSAMINE, 13147-25-6, Dose [Inhibitor]: 0.8% IN DIET BEGINNING 1 WK AFTER LAST CARCINOGEN TREATMENT AND CONTINUING THROUGH DURATION OF STUDY (STUDY DURATION: 32, Route [Inhibitor]: ORAL, Species: RAT, Strain/Sex: F344/MALE, Target Tissue: Type of Lesion: KIDNEY: ADENOCARCINOMA, Dose [Carcinogen]: 0.1% IN DRINKING WATER FOR 2 WK AT BEGINNING OF STUDY): 0/23 (0%), 3/27 (11%), -11%, not significant | tumour outcome (control, treated, inhibition, significance) (Carcinogen: N-ETHYL-N-HYDROXYETHYLNITROSAMINE, 13147-25-6, Dose [Inhibitor]: 0.8% IN DIET BEGINNING 1 WK AFTER LAST CARCINOGEN TREATMENT AND CONTINUING THROUGH DURATION OF STUDY (STUDY DURATION: 32, Route [Inhibitor]: ORAL, Species: RAT, Strain/Sex: F344/MALE, Target Tissue: Type of Lesion: KIDNEY: ADENOMA, Dose [Carcinogen]: 0.1% IN DRINKING WATER FOR 2 WK AT BEGINNING OF STUDY): 5/23 (22%), 17/27 (63%), -186%, p<0.001 | tumour outcome (control, treated, inhibition, significance) (Carcinogen: N-ETHYL-N-HYDROXYETHYLNITROSAMINE, 13147-25-6, Dose [Inhibitor]: 0.8% IN DIET BEGINNING 1 WK AFTER LAST CARCINOGEN TREATMENT AND CONTINUING THROUGH DURATION OF STUDY (STUDY DURATION: 32, Route [Inhibitor]: ORAL, Species: RAT, Strain/Sex: F344/MALE, Target Tissue: Type of Lesion: LIVER: HEPATOCELLULAR CARCINOMA, Dose [Carcinogen]: 0.1% IN DRINKING WATER FOR 2 WK AT BEGINNING OF STUDY): 11/23 (48%), 3/27 (11%), 77%, p<0.05 | tumour outcome (control, treated, inhibition, significance) (Carcinogen: URETHANE, 51-79-6, Dose [Inhibitor]: 0.75% IN DIET 1/WK FOR 24 HR AFTER OVERNIGHT FAST TREATMENT REPEATED FOR 8 CONSECUTIVE WK BEGINNING 1 D AFTER CARCINOGEN, Route [Inhibitor]: ORAL, Species: MOUSE, Strain/Sex: STRAIN A/MALE, Target Tissue: Type of Lesion: LUNG: TYPE II ALVEOLAR CELL TUMORS, CLARA CELL TUMORS, Dose [Carcinogen]: 500 MG/KG ONCE AT 8 WK OF AGE): 100%, 100%, 0%, not significant | tumour outcome (control, treated, inhibition, significance) (Dose [Inhibitor]: 0.05% DIET FOR 2 WK STARTING 2 WK PRIOR TO START OF CARCINOGEN TREATMENT (STUDY DURATION: 48 WK), Route [Inhibitor]: ORAL, Species: RAT, Strain/Sex: F344/MALE, Target Tissue: Type of Lesion: LIVER: CELL TUMOR, Dose [Carcinogen]: 4 PPM IN DIET DAILY FOR 6 WK): 3/11 (27%), 1/15 (7%), 74%, not calculated | tumour outcome (control, treated, inhibition, significance) (Dose [Inhibitor]: 0.05% IN DIET FOR 2 WK STARTING 2 WK PRIOR TO INITIATION OF CARCINOGEN TREATMENT (STUDY DURATION: 48 WK), Route [Inhibitor]: ORAL, Species: RAT, Strain/Sex: F344/MALE, Target Tissue: Type of Lesion: LIVER: LIVER CELL TUMOR, Dose [Carcinogen]: 4 PPM IN DIET FOR 6 WK FOLLOWED BY 40 WK ON CONTROL DIET): 3/11 (27%), 1/12 (8%), 70%, not calculated | tumour outcome (control, treated, inhibition, significance) (Dose [Inhibitor]: 0.5% DIET FOR 2 WK STARTING 2 WK PRIOR TO START OF CARCINOGEN TREATMENT (STUDY DURATION: 48 WK), Route [Inhibitor]: ORAL, Species: RAT, Strain/Sex: F344/MALE, Target Tissue: Type of Lesion: LIVER: CELL TUMOR, Dose [Carcinogen]: 4 PPM IN DIET DAILY FOR 6 WK): 3/11 (27%), 0/15 (0%), 100%, not calculated | tumour outcome (control, treated, inhibition, significance) (Dose [Inhibitor]: 0.5% DIET FOR 2 WK STARTING POST CARCINOGEN TREATMENT AND FOLLOWED BY 40 WK ON CONTROL DIET (STUDY DURATION: 48 WK), Route [Inhibitor]: ORAL, Species: RAT, Strain/Sex: F344/MALE, Target Tissue: Type of Lesion: LIVER: CELL TUMOR, Dose [Carcinogen]: 4 PPM DIET DAILY FOR 6 WK): 3/11 (27%), 3/15 (20%), 26%, not significant | tumour outcome (control, treated, inhibition, significance) (Dose [Inhibitor]: 0.5% DIET FOR 6 WK ADMINISTERED CONCURRENTLY WITH CARCINOGEN TREATMENT FOLLOWED BY 42 WK ON CONTROL DIET (STUDY DURATION, Route [Inhibitor]: ORAL, Species: RAT, Strain/Sex: F344/MALE, Target Tissue: Type of Lesion: LIVER: CELL TUMOR, Dose [Carcinogen]: 4 PPM DIET DAILY FOR 6 WK): 3/11 (27%), 0/15 (0%), 100%, not calculated | tumour outcome (control, treated, inhibition, significance) (Dose [Inhibitor]: 0.5% IN DIET FOR 2 WK STARTING 2 WK PRIOR TO INITIATION OF CARCINOGEN (STUDY DURATION: 48 WK), Route [Inhibitor]: ORAL, Species: RAT, Strain/Sex: F344/MALE, Target Tissue: Type of Lesion: LIVER: LIVER CELL TUMOR, Dose [Carcinogen]: 4 PPM IN DIET FOR 6 WK FOLLOWED BY 40 WK ON CONTROL DIET): 3/11 (27%), 0/15 (0%), 100%, not calculated | tumour outcome (control, treated, inhibition, significance) (Dose [Inhibitor]: 0.5% IN DIET FOR 6 WK ADMINISTERED SIMULTANEOUSLY WITH CARCINOGEN FOLLOWED BY 42 WK ON CONTROL DIET (STUDY DURATION: 48, Route [Inhibitor]: ORAL, Species: RAT, Strain/Sex: F344/MALE, Target Tissue: Type of Lesion: LIVER: LIVER CELL TUMOR, Dose [Carcinogen]: 4 PPM IN DIET FOR 6 WK): 3/11 (20%), 0/9 (0%), 100%, not calculated
